Test system: STHdh Q111 cells
Test: Multiparameter high content imaging for the analysis of cell apoptosis (calcein-AM / propidium iodide / Hoechst)
Type: cell-based, mouse
Conditions: for apoptosis / percentage of dead cells (propidium iodide-positive cells): STHdh Q111 cells treated with FTY720-P vs untreated (vehicle), 24 hours, serum-free medium, P-value=7.98×10^−5, two-sided student t-test, two independent experiments, twenty replicates each
Excerpt: FIG. 16B is a bar plot comparing percentages of dead cells in STHdh Q111 cells not treated with an analogue of S1P (FTY720-P) to STHdh Q111 cells treated with FTY720-P in accordance with some embodiments. […] In contrast, this approach inferred the underlying network of sphingolipid dysregulation and the role of S1P in diseased cells without any prior assumptions.
FIG. 17 is a series of images illustrating cell viability, morphology, and shape in accordance with some embodiments. Images 1702, 1704, and 1706 show STHdh Q7 cells, STHdh Q111 cells, and STHdh Q111 cells treated with FTY720-P, respectively, following treatment with calcein to detect viable cells and monitor changes in cell shape and morphology. Images 1708, 1710, and 1712 show STHdh Q7 cells, STHdh Q111 cells, and STHdh Q111 cells treated with FTY720-P, respectively, following treatment with propidium iodide, which stains late apoptotic cells with damaged membranes. As shown, hidden components inferred by using the described approach rescue diseased cells.
According to some embodiments, STHdhQ7/Q7 and STHdhQ111/Q111 striatal cells were trypsinized, harvested in pre-warmed growth medium and quantified using an automated cell counter (available from, e.g., Countess II, Life Technologies). Six thousand cells per well were seeded in sterile, black 96-well microplates with flat, clear bottom. After 24 hours, the complete medium was removed and replaced with phenol red- and serum-free medium containing either FTY720 phosphate (available from Sigma-Aldrich) or vehicle (e.g., DMSO, available from Sigma-Aldrich) and cells were incubated for 24 hours at 33° C. A multiple staining solution containing 1 μg/ml calcein-AM, 2 μg/ml propidium iodide and 1.5 μg/ml […] (all available from Life Technologies) was added to detect and quantify live, dead, and total cells, respectively. After 20 minutes in incubation, a Cellomics Arrayscan Platform (available from Thermo Scientific) was used for imaging acquisition. […] Cell loss was expressed as the percentage of propidium iodide-positive cells. […]

Substance: FTY720 phosphate [FTY720-P]
- apoptosis / percentage of dead cells (propidium iodide-positive cells): significantly decreasing apoptosis
- apoptosis / percentage of dead cells (propidium iodide-positive cells) (listed as Phosphorylated FTY720): significantly decrease apoptosis
- effect of treating diseased cells (neuroprotection) (STHdh cell line model of Huntington's disease, summary statement): neuroprotective effects
